The test system of data set [1] is A673 cells. In words: Cellular lactate production assay in A673 cells. The data set is classed as cell-based, human. The conditions noted are these: for IC50: Homo sapiens, A673, 0.5 h, read-out: A673 cells lactate inh. IC50.
Data set [2] has as its system A673 cells. Put plainly: Cytotoxicity assay in A673 cells. The conditions noted are these: for IC50: Homo sapiens, A673, 48 h, read-out: A673 cells Cytotox. IC50. It is filed as cell-based, human.
A further data set deals with LDHA (Homo sapiens, UniProt P00338). Put plainly: Biochemical LDHA inhibition assay.
In data set [3] the test system is MiaPaCa-2 cells. Put plainly: Cellular lactate production assay in MiaPaCa-2 cells. It is filed as cell-based. Conditions: Homo sapiens, MIA PaCa-2, 0.5 h, read-out: MiaPaCa-2 cells lactate inh. IC50.
Data set [4] addresses LDHA with C-terminal HiBiT fusion tag (Homo sapiens, UniProt P00338). In words: SplitLuc CETSA. It is filed as cell-based.
The subject of data set [5] is MiaPaCa-2 cells. Put plainly: Cytotoxicity assay in MiaPaCa-2 cells. The data set is classed as cell-based. The conditions noted are these: Homo sapiens, MIA PaCa-2, 48 h, read-out: MiaPaCa-2 cells Cytotox. IC50.
Data set [6] has as its system tumor LDH activity (A673 flank xenograft). Put plainly: In vivo LDHA activity in A673 xenograft tumor mouse model. The conditions noted are these: single IV 50 mg/kg, A673 xenograft mice.
Data set [7] in a line: Mouse pharmacokinetic studies. It is filed as in vivo, CD1 mice. The conditions noted are these: male, CD1, mouse, plasma, iv, 10 mg/kg.
The mark [8] stands for this setting: both cell lines (A673 and MiaPaCa-2).

SMILES strings stand for the structures.

Take `Cc1ccc(C#Cc2cccc(-c3nn(-c4nc(C(=O)O)cs4)c(C(C)C4CC4)c3Cc3ccc(S(N)(=O)=O)c(F)c3)c2)s1` (stereo not shown) [Compound 84, 2-(5-(1-Cyclopropylethyl)-4-(3-fluoro-4-sulfamoylbenzyl)-3-(3-((5-methylthiophen-2-yl)ethynyl)phenyl)-1H-pyrazol-1-yl)thiazole-4-carboxylic Acid]: the IC50 (in general, the point on the concentration scale where inhibition reaches its midpoint) in the data set on A673 cells [1] was found to be 685 nM; in the data set on A673 cells [2] it was 968 nM; at LDHA, 874 nM; with MiaPaCa-2 cells [3], 1030 nM; in data set [4], 708 nM.

Take `C#Cc1cc(-c2nn(-c3nc(C(=O)O)cs3)c(CC3CC3)c2Cc2ccc(S(N)(=O)=O)c(F)c2)ccc1F` [Compound 11, 2-(5-(Cyclopropylmethyl)-3-(3-ethynyl-4-fluorophenyl)-4-(3-fluoro-4-sulfamoylbenzyl)-1H-pyrazol-1-yl)thiazole-4-carboxylic Acid]: the “loss in potency toward lactate output relative to 10” value in the data set on A673 cells [1] (setting [8]) was less than 2 fold. Moreover, the “loss in potency in cytotoxicity relative to 10” value with A673 cells [2] (setting [8]) is on record as less than 3 fold.

For the compound `NS(=O)(=O)c1ccc(Cc2c(-c3ccc(F)c(C#CC4(F)CCCC4)c3)nn(-c3nc(C(=O)O)cs3)c2CC2CC2)cc1F` [Compound 24, 2-(5-(Cyclopropylmethyl)-3-(4-fluoro-3-((1-fluorocyclopentyl)-ethynyl)phenyl)-4-(3-fluoro-4-sulfamoylbenzyl)-1H-pyrazol-1-yl)-thiazole-4-carboxylic Acid], the IC50 worked out at 450 nM in the data set with A673 cells [1]; 689 nM in the data set with A673 cells [2]; 33 nM on LDHA; 454 nM in the data set on MiaPaCa-2 cells [3]; 95 nM in data set [4]; 593 nM in the data set with MiaPaCa-2 cells [5].

Consider `Cc1ccc(C#Cc2cc(-c3nn(-c4nc(C(=O)O)cs4)c(CCC4CC4)c3Cc3ccc(S(N)(=O)=O)c(F)c3)ccc2F)s1` [Compound 74, 2-(5-(2-Cyclopropylethyl)-3-(4-fluoro-3-((5-methylthiophen-2yl)ethynyl)phenyl)-4-(3-fluoro-4-sulfamoylbenzyl)-1H-pyrazol-1-yl)thiazole-4-carboxylic Acid], for which the “effect on LDH activity in tumors (in words)” value (“effect on LDH activity” for short) in data set [6] is given as “moderate inhibition”. Besides, in data set [7], the AUC(0-t) – broadly, the area under the concentration-time curve up to a stated or last time point – came out at 6650 ng·h/mL and the clearance (usually the volume of plasma or blood freed of the substance per unit of time) is 74.7 mL/min/kg.

With `NS(=O)(=O)c1ccc(Cc2c(-c3ccc(F)c(/C=C/C4CCCC4)c3)nn(-c3nc(C(=O)O)cs3)c2CC2CC2)cc1F` [Compound 69, (E)-2-(3-(3-(2-Cyclopentylvinyl)-4-fluorophenyl)-5-(cyclopropylmethyl)-4-(3-fluoro-4-sulfamoylbenzyl)-1H-pyrazol-1-yl)thiazole-4-carboxylic Acid], the “effect on LDH activity” value in data set [6] was “less effects”. The clearance at 24 h in data set [7] is 74.7 mL/min/kg.

As to `NS(=O)(=O)c1ccc(Cc2c(-c3ccc(F)c(C#CC4(F)COC4)c3)nn(-c3nc(C(=O)O)cs3)c2CC2CC2)cc1F` [Compound 27, 2-(5-(Cyclopropylmethyl)-3-(4-fluoro-3-((3-fluorooxetan-3-yl)-ethynyl)phenyl)-4-(3-fluoro-4-sulfamoylbenzyl)-1H-pyrazol-1-yl)-thiazole-4-carboxylic Acid], the IC50 in the data set with A673 cells [1] stood at 1320 nM; in the data set with A673 cells [2] it was 2650 nM; on LDHA it was 7 nM; with MiaPaCa-2 cells [3] it was 1050 nM; in data set [4], 126 nM; in the data set with MiaPaCa-2 cells [5], 2260 nM.

On to `Cc1ncc(C#Cc2cc(-c3nn(-c4nc(C(=O)O)cs4)c(CC4CC4)c3Cc3ccc(S(N)(=O)=O)c(F)c3)ccc2F)s1` [Compound 46, 2-(5-(Cyclopropylmethyl)-3-(4-fluoro-3-((2-methylthiazol-5-yl)-ethynyl)phenyl)-4-(3-fluoro-4-sulfamoylbenzyl)-1H-pyrazol-1-yl)-thiazole-4-carboxylic Acid], for which the clearance at 24 h in data set [7] came to 97 mL/min/kg.

With `Cc1ccc(C#Cc2cccc(-c3nn(-c4nc(C(=O)O)cs4)c(C(C)(C)C4CC4)c3Cc3ccc(S(N)(=O)=O)c(F)c3)c2)s1` [Compound 85, 2-(5-(2-Cyclopropylpropan-2-yl)-4-(3-fluoro-4-sulfamoylbenzyl)-3-(3-((5-methylthiophen-2-yl)ethynyl)phenyl)-1H-pyrazol-1-yl)-thiazole-4-carboxylic Acid], the IC50 with A673 cells [1] worked out at 18300 nM; in the data set on A673 cells [2], 5900 nM; at LDHA it was 4540 nM; in the data set on MiaPaCa-2 cells [3] it was 5140 nM; in data set [4] it was 10800 nM.

Turning to `C/C=C/c1cc(-c2nn(-c3nc(C(=O)O)cs3)c(CC3CC3)c2Cc2ccc(S(N)(=O)=O)c(F)c2)ccc1F` [Compound 71, (E)-2-(5-(Cyclopropylmethyl)-3-(4-fluoro-3-(prop-1-en-1-yl)phenyl)-4-(3-fluoro-4-sulfamoylbenzyl)-1H-pyrazol-1-yl)thiazole-4carboxylic Acid], the “effect on LDH activity” value in data set [6] is reported as “less effects”.

On to `Cc1ccc(C#Cc2cccc(-c3nn(-c4nc(C(=O)O)cs4)c(CC4(C)CC4)c3Cc3ccc(S(N)(=O)=O)c(F)c3)c2)s1` [Compound 86, 2-(4-(3-Fluoro-4-sulfamoylbenzyl)-5-((1-methylcyclopropyl)-methyl)-3-(3-((5-methylthiophen-2-yl)ethynyl)phenyl)-1H-pyrazol-1-yl)thiazole-4-carboxylic Acid], for which the IC50 in the data set with A673 cells [1] came out at 346 nM; with A673 cells [2], 590 nM; against LDHA, 307 nM; with MiaPaCa-2 cells [3], 409 nM; in data set [4], 251 nM.

In data set [7], `Cc1ccc(C#Cc2cc(-c3nn(-c4nc(C(=O)O)cs4)c(CC4CC4)c3Cc3ccc(S(N)(=O)=O)c(F)c3)ccc2F)o1` [Compound 44, 2-(5-(Cyclopropylmethyl)-3-(4-fluoro-3-((5-methylfuran-2-yl)-ethynyl)phenyl)-4-(3-fluoro-4-sulfamoylbenzyl)-1H-pyrazol-1-yl)-thiazole-4-carboxylic Acid] had a clearance at 24 h of 75 mL/min/kg.

With `NS(=O)(=O)c1ccc(Cc2c(-c3cccc(C#Cc4ccc(C5CC5)s4)c3)nn(-c3nc(C(=O)O)cs3)c2CC2CC2)cc1F` [Compound 56, 2-(5-(Cyclopropylmethyl)-3-(3-((5-cyclopropylthiophen-2-yl)-ethynyl)phenyl)-4-(3-fluoro-4-sulfamoylbenzyl)-1H-pyrazol-1-yl)-thiazole-4-carboxylic Acid], in data set [6], the “effect on LDH activity” value is “moderate inhibition”. The “inhibition of tumor LDH activity at 6 h postdose” value in data set [6] (6 h) is “failed to maintain significant inhibition”.

For the compound `Cc1ccc(C#Cc2cccc(-c3nn(-c4nc(C(=O)O)cs4)c(CCC4CC4)c3Cc3ccc(S(N)(=O)=O)c(F)c3)c2)s1` [Compound 75, 2-(5-(2-Cyclopropylethyl)-4-(3-fluoro-4-sulfamoylbenzyl)-3-(3-((5-methylthiophen-2-yl)ethynyl)phenyl)-1H-pyrazol-1-yl)thiazole-4-carboxylic Acid], the clearance at 24 h in data set [7] worked out at 18.6 mL/min/kg.

For `Cc1cc(C#Cc2cccc(-c3nn(-c4nc(C(=O)O)cs4)c(CCC4CC4)c3Cc3ccc(S(N)(=O)=O)c(F)c3)c2)cs1` [Compound 77, 2-(5-(2-Cyclopropylethyl)-4-(3-fluoro-4-sulfamoylbenzyl)-3-(3-((5-methylthiophen-3-yl)ethynyl)phenyl)-1H-pyrazol-1-yl)thiazole-4-carboxylic Acid], the half-inhibitory concentration (IC50) turned out to be 434 nM in the data set with A673 cells [1]; 197 nM in the data set on A673 cells [2]; 160 nM against LDHA; 254 nM in the data set on MiaPaCa-2 cells [3]; 142 nM in data set [4].

As to `Cc1ccc(C#Cc2cccc(-c3nn(-c4nc(C(=O)O)cs4)c(C4CC4C4CC4)c3Cc3ccc(S(N)(=O)=O)c(F)c3)c2)s1` (stereo not shown) [Compound 88, 2-(5-([1,1′-Bi(cyclopropan)]-2-yl)-4-(3-fluoro-4-sulfamoylbenzyl)-3-(3-((5-methylthiophen-2-yl)ethynyl)phenyl)-1H-pyrazol-1-yl)thiazole-4-carboxylic Acid], the IC50 in the data set on A673 cells [1] is 364 nM; in the data set with A673 cells [2], 4690 nM; against LDHA, 1170 nM; in the data set with MiaPaCa-2 cells [3], 515 nM; in data set [4], 1030 nM.

For the compound `C=C(c1cc(-c2nn(-c3nc(C(=O)O)cs3)c(CC3CC3)c2Cc2ccc(S(N)(=O)=O)c(F)c2)ccc1F)C(F)(F)F` [Compound 73, 2-(5-(Cyclopropylmethyl)-3-(4-fluoro-3-(3,3,3-trifluoroprop-1-en-2-yl)phenyl)-4-(3-fluoro-4-sulfamoylbenzyl)-1H-pyrazol-1-yl)-thiazole-4-carboxylic Acid], the IC50 with A673 cells [1] came to 713 nM; with A673 cells [2], 16000 nM; on LDHA, 39 nM; in the data set on MiaPaCa-2 cells [3], 972 nM; in data set [4], 398 nM.

`Cc1ccc(C#Cc2cccc(-c3nn(-c4nc(C(=O)O)cs4)c(C(C4CC4)C4CC4)c3Cc3ccc(S(N)(=O)=O)c(F)c3)c2)s1` [Compound 89, 2-(5-(Dicyclopropylmethyl)-4-(3-fluoro-4-sulfamoylbenzyl)-3-(3-((5-methylthiophen-2-yl)ethynyl)phenyl)-1H-pyrazol-1-yl)thiazole-4-carboxylic Acid]: the IC50 was determined as 1860 nM in the data set on A673 cells [1]; 26400 nM with A673 cells [2]; 5270 nM on LDHA; 1220 nM in the data set on MiaPaCa-2 cells [3]; 3180 nM in data set [4].

Consider `Cc1ccc(C#Cc2cccc(-c3nn(-c4nc(C(=O)O)cs4)c(CC4CC4)c3Cc3ccc(S(N)(=O)=O)c(F)c3)c2)o1` [Compound 61, 2-(5-(Cyclopropylmethyl)-4-(3-fluoro-4-sulfamoylbenzyl)-3-(3-((5-methylfuran-2-yl)ethynyl)phenyl)-1H-pyrazol-1-yl)thiazole-4-carboxylic Acid], for which the clearance at 24 h in data set [7] amounted to 72.3 mL/min/kg.

The record behind these values is article PMC7830743 (Journal of medicinal chemistry, 2020).
